Test results from PMC12894981, “Structure-guided screening identifies Tucatinib as dual inhibitor for MCT1/2” (EMBO Reports, 2025).
Where a chain is given by its changes, count along the chain named. Where two headings read alike, the source gives them in different places.

Assays:
[1] = target: T1, MCT2-embigin (Homo sapiens, UniProt O60669, F262A); experiment: bio-layer interferometry, SSA biosensor, […] fit; type: binding; details: pH 7.4, 25 °C
T1 construct: gene SLC16A7; fusion: embigin C-terminus joined by GGSG linker to MCT2 N-terminus, C-terminal twin-Strep tag; HEK-293F, DDM then GDN, heterodimer; in transport tests expressed as fusion in HEK-293T cells; with Embigin
T1 sequence (O60669 1-478 F262A): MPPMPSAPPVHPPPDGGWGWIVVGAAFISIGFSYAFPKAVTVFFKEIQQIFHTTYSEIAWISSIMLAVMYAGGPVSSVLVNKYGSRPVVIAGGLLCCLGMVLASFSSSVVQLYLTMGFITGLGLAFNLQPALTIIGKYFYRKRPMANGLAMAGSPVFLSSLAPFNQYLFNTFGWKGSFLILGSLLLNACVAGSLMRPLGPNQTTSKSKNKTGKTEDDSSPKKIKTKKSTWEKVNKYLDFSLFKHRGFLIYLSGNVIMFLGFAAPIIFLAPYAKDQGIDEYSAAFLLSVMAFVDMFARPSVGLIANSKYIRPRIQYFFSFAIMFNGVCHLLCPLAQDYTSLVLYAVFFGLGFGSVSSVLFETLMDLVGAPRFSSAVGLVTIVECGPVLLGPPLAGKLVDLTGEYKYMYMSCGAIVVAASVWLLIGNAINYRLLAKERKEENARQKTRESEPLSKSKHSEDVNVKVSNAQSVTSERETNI
T1 sequence (Q6PCB8 33-327 partner): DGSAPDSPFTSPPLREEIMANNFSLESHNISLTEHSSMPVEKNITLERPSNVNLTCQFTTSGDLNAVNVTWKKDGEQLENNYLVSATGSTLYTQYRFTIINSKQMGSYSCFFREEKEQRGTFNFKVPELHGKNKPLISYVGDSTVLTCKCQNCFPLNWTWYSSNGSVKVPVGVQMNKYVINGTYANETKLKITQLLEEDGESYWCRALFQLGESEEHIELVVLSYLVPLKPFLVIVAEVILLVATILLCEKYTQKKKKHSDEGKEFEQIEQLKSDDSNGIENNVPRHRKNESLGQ

[2] = target: T2, MCT2-embigin (Homo sapiens, UniProt O60669); experiment: pyruvate uptake, pyronicSF fluorescence, transfected HEK-293T cells; type: cell-based
T2 construct: gene SLC16A7; fusion: embigin C-terminus joined by GGSG linker to MCT2 N-terminus, C-terminal twin-Strep tag; HEK-293F, DDM then GDN, heterodimer; in transport tests expressed as fusion in HEK-293T cells; with Embigin
T2 sequence (O60669 1-478): T1 sequence (O60669 1-478 F262A) with A262F
T2 sequence (Q6PCB8 33-327 partner): T1 sequence (Q6PCB8 33-327 partner)

[3] = target: T2, MCT2-embigin; experiment: bio-layer interferometry, SSA biosensor, […] fit; type: binding; details: read-out: affinity (KD)
[4] = target: T3, MCT2-embigin (Homo sapiens, UniProt O60669, Y34A); experiment: bio-layer interferometry, SSA biosensor, […] fit; type: binding; details: pH 7.4, 25 °C
T3 construct: gene SLC16A7; fusion: embigin C-terminus joined by GGSG linker to MCT2 N-terminus, C-terminal twin-Strep tag; HEK-293F, DDM then GDN, heterodimer; in transport tests expressed as fusion in HEK-293T cells; with Embigin
T3 sequence (O60669 1-478 Y34A): T1 sequence (O60669 1-478 F262A) with Y34A, A262F
T3 sequence (Q6PCB8 33-327 partner): T1 sequence (Q6PCB8 33-327 partner)

[5] = test system: T4, MCT1-Basigin-2; experiment: pyruvate uptake, pyronicSF fluorescence, transfected HEK-293T cells; type: cell-based, Homo sapiens; details: 5 mM pyruvate; 30 min pre-incubation
T4 construct: gene SLC16A1; fusion MCT1-Basigin-2; expressed in HEK-293T cells with pyronicSF for transport; with Basigin

[6] = target: T2, MCT2-embigin; experiment: bio-layer interferometry, SSA biosensor, […] fit
[7] = target: T5, MCT2-embigin (Homo sapiens, UniProt O60669, F351A); experiment: bio-layer interferometry, SSA biosensor, […] fit; type: binding
T5 construct: gene SLC16A7; fusion: embigin C-terminus joined by GGSG linker to MCT2 N-terminus, C-terminal twin-Strep tag; HEK-293F, DDM then GDN, heterodimer; in transport tests expressed as fusion in HEK-293T cells; with Embigin
T5 sequence (O60669 1-478 F351A): T1 sequence (O60669 1-478 F262A) with A262F, F351A
T5 sequence (Q6PCB8 33-327 partner): T1 sequence (Q6PCB8 33-327 partner)

[8] = target: T1, MCT2-embigin; experiment: bio-layer interferometry, SSA biosensor, […] fit; type: binding
[9] = target: T3, MCT2-embigin; experiment: bio-layer interferometry, SSA biosensor, […] fit; type: binding

Compound | KD [1] | IC50 [2] | Kd [3] | KD [4] | IC50 [5] | Kd [6] | Kd [7] | Kd [8] | Kd [9]
Cc1n[nH]c(C)c1Cc1sc2c(c1C(=O)N1C[C@H](O)CO1)c(=O)n(C)c(=O)n2CC(C)C [AR-C155858] | MCT2(F262A)-embigin (B) | 981 nM | 600 nM | The binding kinetics of AR-C155858 bound to MCT2(Y34A)-embigin (A) | – | – | – | – | –
Cc1[nH]nc(C(F)(F)F)c1Cc1sc2c(c1C(=O)N1C[C@](C)(O)CO1)c(=O)n(C)c(=O)n2C(C)C [AZD3965] | – | – | – | – | 1240 nM | – | – | – | –
Cc1cc(Nc2ncnc3ccc(NC4=NC(C)(C)CO4)cc23)ccc1Oc1ccn2ncnc2c1 [Tucatinib] | – | 2710 nM | – | – | 2600 nM | 600 nM | 211000 nM | 33200 nM | 13800 nM
